CN1CCN(C2=Nc3cc(Cl)ccc3Nc3ccccc32)CC1
solubility (mole fraction)
Details | 278.15 K | 283.15 K | 288.15 K | 293.15 K | 298.15 K | 303.15 K | 308.15 K | 313.15 K | 318.15 K | 323.15 K
in 2-ethoxyethanol | 0.0358 | 0.0391 | 0.0415 | 0.0442 | 0.0476 | 0.0499 | 0.053 | 0.0566 | 0.0612 | 0.0666
in 2-methoxyethanol | 0.0326 | 0.0349 | 0.0366 | 0.0393 | 0.0422 | 0.0451 | 0.048 | 0.0508 | 0.0546 | 0.0596
in 2-propoxyethanol | 0.042 | 0.0443 | 0.0463 | 0.0499 | 0.0521 | 0.0548 | 0.0581 | 0.0612 | 0.0637 | 0.0679
in ethanol | 0.00466 | 0.00535 | 0.00581 | 0.0064 | 0.0072 | 0.0081 | 0.00917 | 0.0105 | 0.012 | 0.0134
in ethyl acetate | 0.00895 | 0.01 | 0.0114 | 0.0128 | 0.0146 | 0.016 | 0.0181 | 0.0203 | 0.0233 | 0.0265
in methyl acetate | 0.00616 | 0.00707 | 0.00797 | 0.0094 | 0.0108 | 0.0124 | 0.0142 | 0.0164 | 0.0188 | 0.022
in n-butanol | 0.00644 | 0.00761 | 0.00853 | 0.00972 | 0.0112 | 0.0129 | 0.0145 | 0.0164 | 0.0192 | 0.0217
in n-butyl acetate | 0.0121 | 0.0136 | 0.0147 | 0.0164 | 0.0182 | 0.02 | 0.0228 | 0.0255 | 0.0276 | 0.0314
in n-pentanol | 0.00737 | 0.00904 | 0.0107 | 0.0121 | 0.0135 | 0.0152 | 0.0177 | 0.0203 | 0.0234 | 0.0264
in n-pentyl acetate | 0.0131 | 0.0143 | 0.0162 | 0.0176 | 0.0198 | 0.0221 | 0.024 | 0.0269 | 0.0298 | 0.0334
in n-propanol | 0.00577 | 0.00645 | 0.00734 | 0.0083 | 0.00928 | 0.0109 | 0.0123 | 0.0148 | 0.0168 | 0.019
in n-propyl acetate | 0.0114 | 0.0128 | 0.014 | 0.0157 | 0.0174 | 0.0194 | 0.0219 | 0.0246 | 0.027 | 0.0305

— BigSolDB 2.1
